Entries after “also recorded” stand apart in the source; their conditions may differ.
Assays:
[1] = tested on: edema of paw induced by bradykinin; assay: edema of paw induced by bradykinin; type: in vivo, Wistar rats; details: HOE 140 10 nmol/paw intraplant
Method: Wistar rats were stimulated through intraplant injection of 10 nmol/paw of bradykinin (BK) in one of the rear paws at the volume of 50 μL/paw (Henriques, 1991). In the counter-lateral paw was injected the same volume of vehicle (sterile saline free of pyrogens). The stimulus was performed in non-treated animals and in animals pre-treated through of an intraplant injection of 10 nmol/paw of antagonist to bradykinin HOE 140 at the volume of 50 μL. Thirty minutes after the stimulus, the edema was analyzed on the digital plethysmograph, through the displacement of fluid (0.5 g NaCl; 3 mL Extran 100%/1 L) produced by insertion of each paw in the measurement tray. Each analysis was performed 3 times.

[2] = tested on: edema of paw induced by carrageenin; assay: edema of paw induced by carrageenin; type: in vivo, Swiss mice; details: diclophenac 100 mg/Kg oral; carrageenin 300 μg/paw
Method: (§1) The animals were stimulated through intraplant injection of stimulus (zimosan or carrageenin) in one of rear paws with the volume of 50 μL/paw. Doses used were: 500 μg/paw of zimosan and 300 μg/paw of carrageenin. In the counter-lateral the same volume of vehicle was injected (sterile saline free of pyrogens). Four hours after the stimulus, the edema was analyzed at the digital plethysmograph, through of displacement of fluid (0.5 g NaCl; 3 mL Extran 100%/1 L) produced by insertion of each paw in the measurement tray. Each Analysis was performed 3 times.

[3] = tested on: pleurisis induced by carrageenin; assay: pleurisis induced by carrageenin; type: in vivo, Swiss mice; details: diclophenac 100 mg/Kg p.o.; 4 h
Method: Pleurisis was induced through intra-thoracic injection (i.t) of carrageenin (300 μg/cavity) at the final volume of 100 μL (Henriques and col., 1991). The control group received 100 μL of vehicle (sterile saline). Four hours after the stimulus, the animals were sacrificed in of CO2 chamber, their thoracic pleural were exposed and washed with phosphate tampon (PBS) heparinized (20 UI/mL). The pleural cavity of the animals was washed with the help of an automatic pipette, at the volume of 1 mL. The pleural wash was collected and centrifuged (740 g, 10 minutes) to remove cells for posterior evaluation of the proteic exudation, as described as follows. Mice were previously injected intravenously at their orbital plexus with Evans blue 1% (25 mg/Kg), and a proteic exudation was evaluated through of overflowing of Evans blue, through spectrophotometer at λ 600 nm. The concentration of Evans blue was determined comparing the optical density (D.O.) of washes with a pattern curve of Evans blue (of 25.6 a 0.2 μg/mL). Results were expressed as μg/mL of Evans blue. The count of the number of total leucocytes in the pleural wash was made with the help of a Neubauer chamber as of a quota removed from the pleural wash, diluted 40 times in Turk liquid for the lise of erythrocytes. […] Results are expressed as number of cells (×10^6) by cavity.

[4] = tested on: edema of paw induced by zimosan; assay: edema of paw induced by zimosan; type: in vivo, Swiss mice; details: diclophenac 100 mg/Kg oral; zimosan 500 μg/paw
Method: as §1

[5] = tested on: edema of paw induced by PAF; assay: edema of paw induced by platelet activation factor (PAF); type: in vivo, Swiss mice; details: WEB 2170 16 mg/Kg oral; PAF 1 μg/paw
Method: Swiss mice were stimulated through intraplant injection of 1 μg/paw of platelet activation factor (PAF) in one of the rear paws at the volume of 50 μL/paw. In the counter-lateral paw the same volume of vehicle injected (sterile saline free of pyrogens). The stimulus was performed in non-treated animals and animals pre-treated with 16 mg/Kg of antagonist to PAF WEB 2170 (p.o., 100 μL). Thirty minutes after the stimulus, the edema was analyzed by the digital plethysmograph, through the displacement of fluid (0.5 g NaCl; 3 mL Extran 100%/1 L) produced by insertion of each paw in the measurement tray. Each analysis was performed 3 times.

[6] = tested on: hyperalgesia induced by carrageenin; assay: hyperalgesia induced by carrageenin (hot plate); type: in vivo, Wistar rats; details: dipyrone 100 mg/Kg p.o.
Method: (§2) The […] activity was evaluated through an essay of hyperalgesia, performed in a heated plate (Hot Plate, Ugo Basile-Italia model DS-37), with male Wistar rats. The essay is performed through placement of the animals on the hot plate, limited by an acrylic dome of approximately 18 cm in diameter by 40 cm in height.
The induction of hyperalgesic state was performed through the intraplant injection of 800 μg/paw of carrageenin in Wistar rats in one of the rear paws, at the final volume of 100 μL/paw. In the counter-lateral paw the same volume of vehicle (sterile saline free of pyrogens) was injected. The stimulus was performed in animals non-treated and in animals pre-treated with dipyrone (100 mg/Kg, p.o.). Three hours after the stimulus, the animals were placed in a hot plate at 52.5±0.5° C., and two chronometers are set to record the latency of response of withdrawal of each rear paw. Results were expressed in terms of variation of latency of withdrawal of left and right side paws, measured in seconds.

[7] = tested on: edema of paw induced by histamine; assay: edema of paw induced by histamine, oral pre-treatment; type: in vivo, Swiss mice; details: mice; promethazine 30 mg/Kg p.o.
Method: The animals were stimulated through interplant injection of stimulus (histamine, bradikinin and PAF—platelet-activating factor) in one of the rear paws with volumes of 50 or 100 μL/paw for mice or rats, respectively. The dosages used were: 100 μg/paw of histamine, 10 nmol/paw of bradykinin and 1 μg/paw of PAF (we notice that only bradykinin was injected in a volume of 50 μL). On the counter-lateral side of the paw the same volume of the vehicle (saline sterile free of pyrogen). Thirty minutes or one hour after the stimulus, the edema was analyzed at the digital plethysmograph, through of displacement of fluid (0.5 g NaCl; 3 mL Extran 100%/1 L) produced by the insertion of each paw in the measurement tray. Each analysis was performed 3 times.
(§3) The treatments with oil or tetranortriterpenoids were performed orally (p.o) 1 hour before the stimulation in conscious animals, kept in a previous fasting of 12 hours with free access to water. The treatment solutions were administered with the help of a curve needle with spherical end, with volumes of 200 μL or 400 μL for mice (of 25 g) or rats (of 200 g). The doses used were 200 or 400 mg/Kg for mice and 150 or 300 mg/Kg for rats. The tetranortriterpenoids were administered in doses of 12.5; 25; 50; 100 and 200 mg/Kg. […]

[8] = tested on: edema of paw induced by egg albumin in sensitized mice; assay: allergic edema of paw induced by egg albumin, oral pre-treatment; type: in vivo, Swiss mice; details: promethazine 30 mg/Kg oral, 1 h before, egg albumin 3 μg/paw
Method: This essay was made in animals previously sensitized through an subcutaneous injection (s.c.) in the dorsal region with 200 μL of a suspension containing 50 μg of egg albumin+5 mg (Al(OH)3) diluted in sterile saline free or pyrogens (200 μL/animal). The edema of paw was induced by an intraplant paw injection of egg albumin (3 μg/paw, no final volume of 50 μL) in one of the back paws, fourteen days after sensitization. The counter-lateral paw received an injection with the same volume of the vehicle (solution saline). The edema was analyzes in a digital plethysmograph, through the displacement of fluid (0.5 g NaCl; 3 mL Extran 100%/1 L) produced by the insertion of the paw in test in the measurement tray. Each analysis was performed 3 times. […]
For evaluation of the anti-allergenic activity of the oil of Carapa guianensis, the dosages of 200 and 400 mg/Kg were tested for mice and 150 and 300 mg/Kg for rats, depending on the model tested. […] The results were expressed as mean and pattern error of the mean and (AND.P.M.), and statistically analyzed through the analysis of the variance (ANOVA), followed by test of multiple comparisons of Newman-Kewls, or T of Student test with a level of significance minor or equal to 0.05 (p≦0.05).

[9] = tested on: hyperalgesia induced by histamine; assay: hyperalgesia induced by histamine (hot plate); type: in vivo, Wistar rats; details: promethazine 30 mg/Kg p.o.
Method: as §2
The induction of a hyperalgesic state was performed through intraplant injection of 100 μg/paw of histamine in Wistar rats in one of the rear paws, at the final volume of 100 μL/paw. In the counter-lateral paw the same volume of vehicle (sterile saline free of pyrogens) was injected. The stimulus was performed in animals non-treated and in animals pre-treated with promethazine (30 mg/Kg, p.o.). Thirty minutes after the stimulus, the animals were placed in a hot plate at 52.5±0.5° C., and two chronometers are set to record the latency of response of withdrawal of each rear paw. Results were expressed in terms of variation of latency of withdrawal of left and right side paws, measured in seconds.
The induction of a hyperalgesic state was performed through intraplant injection of 100 μg/paw of histamine in Wistar rats in one of the rear paws, at a final volume of 100 μL/paw. […] Results were expressed in terms of variation of latency of withdrawal of left and right side paws, measured in seconds.

[10] = tested on: ear edema induced by histamine; assay: edema of ear induced by histamine (Evans blue); type: in vivo, mice; details: promethazine 10 mg/Kg p.o.; 30 minutes
Method: The ear edema was induced in anesthetized mice (pentobarbital 40 mg/kg, via intravenous, i.v.) with an intravenous injection (i.v.) in the orbital plexus of Evans blue 1% (25 mg/Kg), 24 hours before the stimulus. […] Thirty minutes after the stimulus, the animals were sacrificed in the chamber of CO2, and their ears were removed and placed in formamide (500 μL/ear) for 24 hours for the extraction of Evans blue. The concentration of Evans blue in the supernatant was analyzed through spectrophotometer (SpectraMax®) at λ 600 nm. The concentration of Evans blue is determined comparing the optical density é (D.O.) of a pattern curve (from 25.6 to 0.2 μg/mL).
as §3

[11] = tested on: pleural exudation induced by histamine; assay: pleurisy induced by histamine, pleural exudation (Evans blue); type: in vivo, Swiss mice; details: promethazine 30 mg/Kg p.o.; histamine 100 μg/cavity
Method: The pleurisy was induced through intra-thoracic injection (i.t) of histamine (100 μg/cavity) at the final volume of 100 μL. The control group received 100 μL of vehicle (sterile saline). One hour after the stimulus, the animals were sacrificed in a chamber CO2, their thoracic cavities were exposed and washed with phosphate tampon (PBS) heparinized (20 UI/mL). The pleural cavity of the animals was washed with the help of an automatic pipette, with volumes of 1 and 3 mL for mice and rats, respectively. The pleural wash was collected and centrifuged (740 g, 10 minutes) to remove the cells for posterior evaluation of the proteic exudation, as described as follows. In experiences made with mice, they were previously intravenously injected with Evans blue 1% (25 mg/Kg), at the orbital plexus and the proteic exudation was evaluated through overflow of Evans blue, through spectrophotometer at λ 600 nm. The concentration of Evans blue was determined comparing the optical density (D.O.) of washes with a pattern curve of Evans blue (of 25.6 a 0.2 μg/mL). Results were expressed as μg/mL of Evans blue. For analysis in rats, the exudation of pleural wash was evaluated by the measure of the volume collected from the cavity with the help of a graded syringe and the overflow of proteins was evaluated by the quantification of proteins at the supernatant by the method of Lowry (Lowry et al., 1951). […]

HOE 140
edema of paw induced by bradykinin [1]: inhibition of edema

O=C([O-])Cc1ccccc1Nc1c(Cl)cccc1Cl.[K+] [diclophenac, diclophenac of potassium]
edema of paw induced by carrageenin [2]: inhibition | proteic overflow induced by carrageenin in pleural cavity [3]: able to significantly inhibit the proteic overflow induced by carrageenin | edema of paw induced by zimosan [4]: inhibition

Cc1nnc2n1-c1sc3c(c1C(c1ccccc1Cl)=NC2)CC(C(=O)N1CCOCC1)C3 (centres unmarked) [WEB 2170]
edema of paw induced by PAF [5]: inhibition of edema

Cc1c(N(C)CS(=O)(=O)[O-])c(=O)n(-c2ccccc2)n1C.[Na+] [dipyrone]
hyperalgesia induced by carrageenin [6]: inhibition of hyperalgesia

CC(CN1c2ccccc2Sc2ccccc21)N(C)C (centres unmarked) [promethazine]
edema of paw induced by histamine [7]: inhibited | allergic edema of paw induced by egg albumin [8]: significantly inhibited; also recorded: inhibition of edema | hyperalgesia induced by histamine [9]: inhibition of hyperalgesia | ear edema induced by histamine [10]: able to significantly inhibit the edema induced by histamine | proteic overflow in pleurisis induced by histamine [11]: able to significantly inhibit the proteic overflow induced by histamine

— US20120148695A1, “Pharmaceutical Compositions From Carapa Guianensis” (priority 2004, published 2012)
